Results reported in US20050065187A1, “Novel antimicrobial aryloxazolidinone compounds” (priority 2003, published 2005).
≈ marks a conversion by molar mass, not a printed value. Read-outs that look alike come from different tables or passages of the source.

What was measured:
Test in all cases: Antibacterial assay (Test A), microtitration MIC
SPNE 9912 = assay type: cell-based, S. pneumoniae; conditions: Streptococcus pneumoniae, read-out: SPNE 9912 MIC
Description: (§1) Test A—Antibacterial Assays
(§2) The compounds of the present invention were tested against an assortment of Gram-negative and Gram-positive organisms using standard microtitration techniques (Cohen et. al., Antimicrob., 1985;28:766; Heifetz, et. al., Antimicrob., 1974;6:124).

MC 30603 = assay type: cell-based, M. catarrhalis; conditions: Moraxella catarrhalis, read-out: MC 30603 MIC
Description: as §1, §2

HINF 30063 = assay type: cell-based, H. influenza; conditions: Minimum Inhibitory Concentration, strain HINF 30063
Description: as §1, §2

SAUR 9213 = assay type: cell-based, S. aureus; conditions: Staphylococcus aureus, read-out: SAUR 9213 MIC
Description: as §1, §2

[1] = Minimum Inhibitory Concentration, strain SPNE 9912
[2] = Minimum Inhibitory Concentration, strain MC 30603
[3] = Minimum Inhibitory Concentration, strain SAUR 9213

Row | Structure (SMILES) | MIC (SPNE 9912; [1]) [µg/mL] | MIC (MC 30603; [2]) [µg/mL] | MIC (HINF 30063) [µg/mL] | MIC (SAUR 9213; [3]) [µg/mL] | MIC (SPNE 9912) [µg/mL] | MIC (MC 30603) [µg/mL] | MIC (SAUR 9213) [µg/mL]
1 | CON=C1CCC(c2ccc(N3C[C@H](CNC(C)=O)OC3=O)cc2F)CC1 (stereo partly shown) [Example 22, N-{3-[3-Fluoro-4-(4-methoxyimino-cyclohexyl)-phenyl]-2-oxo-oxazolidin-5-ylmethyl}-acetamide] | 1 (≈ 2.65 µM) | 1 (≈ 2.65 µM) | 32 (≈ 84.8 µM) | 2 (≈ 5.3 µM) | – | – | –
2 | CCC(=O)NC[C@H]1CN(c2ccc(C3CCC(O)CC3)c(F)c2)C(=O)O1 (stereo in doubt) [Example 17, N-{3-[3-Fluoro-4-(4-hydroxy-cyclohexyl)-phenyl]-2-oxo-oxazolidin-5-ylmethyl}-propionamide] | 1 (≈ 2.74 µM) | 4 (≈ 11 µM) | 4 (≈ 11 µM) | 2 (≈ 5.49 µM) | – | – | –
3 | O=C(NC[C@H]1CN(c2ccc(C3CCC(O)[C@@H](O)C3)c(F)c2)C(=O)O1)C(F)F (stereo in doubt) [Example 10, N-{3-[4-(3,4-Dihydroxy-cyclohexyl)-3-fluoro-phenyl]-2-oxo-oxazolidin-5-ylmethyl}-2,2-difluoro-acetamide] | 1 (≈ 2.49 µM) | 4 (≈ 9.94 µM) | 8 (≈ 19.9 µM) | 4 (≈ 9.94 µM) | – | – | –
4 | CC(=O)NC[C@H]1CN(c2ccc(N3CCC(=O)[C@@H](O)C3)c(F)c2)C(=O)O1 [Example 2, N-{3-[3-Fluoro-4-(3-hydroxy-4-oxo-piperidin-1-yl)-phenyl]-2-oxo-oxazolidin-5-ylmethyl}-acetamide] | 1 (≈ 2.74 µM) | 8 (≈ 21.9 µM) | 16 (≈ 43.8 µM) | 4 (≈ 10.9 µM) | – | – | –
5 | O=C(NC[C@H]1CN(c2ccc(C3CCC(O)[C@@H](O)C3)c(F)c2)C(=O)O1)C(Cl)Cl (stereo in doubt) [Example 9, 2,2-Dichloro-N-{3-[4-(3,4-dihydroxy-cyclohexyl)-3-fluoro-phenyl]-2-oxo-oxazolidin-5-ylmethyl}-acetamide] | 1 (≈ 2.3 µM) | 4 (≈ 9.19 µM) | 4 (≈ 9.19 µM) | 4 (≈ 9.19 µM) | – | – | –
6 | NC(=O)[C@H]1CN(c2ccc(C3CCC(=O)CC3)c(F)c2)C(=O)O1 [Example 24, 3-[3-Fluoro-4-(4-oxo-cyclohexyl)-phenyl]-2-oxo-oxazolidine-5-carboxylic acid amide] | 2 (≈ 6.24 µM) | 32 (≈ 99.9 µM) | 32 (≈ 99.9 µM) | 1 (≈ 3.12 µM) | – | – | –
7 | O=C1O[C@@H](Cn2ccnn2)CN1c1ccc(N2CC[C@@H](O)[C@@H](O)C2)c(F)c1 (stereo in doubt) [Example 5, 3-[4-(3,4-Dihydroxy-piperidin-1-yl)-3-fluoro-phenyl]-5-[1,2,3]triazol-1-ylmethyl-oxazolidin-2-one] | 1 (≈ 2.65 µM) | 16 (≈ 42.4 µM) | 32 (≈ 84.8 µM) | 4 (≈ 10.6 µM) | – | – | –
8 | NC(=O)[C@H]1CN(c2ccc(C3CCC(O)CC3)c(F)c2)C(=O)O1 (stereo in doubt) [Example 23, 3-[3-Fluoro-4-(4-hydroxy-cyclohexyl)-phenyl]-2-oxo-oxazolidine-5-carboxylic acid amide] | 1 (≈ 3.1 µM) | 16 (≈ 49.6 µM) | 64 (≈ 199 µM) | 2 (≈ 6.2 µM) | – | – | –
9 | O=C1O[C@@H](CNC(=S)C(F)F)CN1c1ccc(C2CCC(O)[C@@H](O)C2)cc1 (stereo in doubt) [Example 15, N-{3-[4-(3,4-Dihydroxy-cyclohexyl)-phenyl]-2-oxo-oxazolidin-5-ylmethyl}-2,2-difluoro-thioacetamide] | 1 (≈ 2.5 µM) | 8 (≈ 20 µM) | 16 (≈ 40 µM) | 4 (≈ 9.99 µM) | – | – | –
10 | O=C(NC[C@H]1CN(c2ccc(C3CCC(O)[C@@H](O)C3)cc2)C(=O)O1)C(F)F (stereo in doubt) [Example 14, N-{3-[4-(3,4-Dihydroxy-cyclohexyl)-phenyl]-2-oxo-oxazolidin-5-ylmethyl}-2,2-difluoro-acetamide] | 2 (≈ 5.2 µM) | 16 (≈ 41.6 µM) | 16 (≈ 41.6 µM) | 8 (≈ 20.8 µM) | – | – | –
11 | CC(=O)NC[C@H]1CN(c2ccc(N3CC/C(=N/O)[C@@H](O)C3)c(F)c2)C(=O)O1 (stereo in doubt) [Example 3, N-{3-[3-Fluoro-4-(3-hydroxy-4-hydroxyimino-piperidin-1-yl)-phenyl]-2-oxo-oxazolidin-5-ylmethyl}-acetamide] | 2 (≈ 5.26 µM) | 16 (≈ 42.1 µM) | 16 (≈ 42.1 µM) | 8 (≈ 21 µM) | – | – | –
12 | CCC(=O)NC[C@H]1CN(c2ccc(C3CCC(O)C(F)C3)c(F)c2)C(=O)O1 (single isomer, unassigned) [Example 27, N-{3-[3-Fluoro-4-(3-fluoro-4-hydroxy-cyclohexyl)-phenyl]-2-oxo-oxazolidin-5-ylmethyl}-propionamide] | 0.25 (≈ 0.654 µM) | 2 (≈ 5.23 µM) | 8 (≈ 20.9 µM) | 2 (≈ 5.23 µM) | – | – | –
13 | CC(=O)NC[C@H]1CN(c2ccc(C3CCC(=O)CC3)c(F)c2)C(=O)O1 [Example 20, N-{3-[3-Fluoro-4-(4-oxo-cyclohexyl)-phenyl]-2-oxo-oxazolidin-5-ylmethyl}-acetamide] | 0.5 (≈ 1.44 µM) | 8 (≈ 23 µM) | 16 (≈ 45.9 µM) | 2 (≈ 5.74 µM) | – | – | –
14 | CCC(=O)NC[C@H]1CN(c2ccc(C3CCC(O)[C@@H](O)C3)c(F)c2)C(=O)O1 (stereo in doubt) [Example 8, N-{3-[4-(3,4-Dihydroxy-cyclohexyl)-3-fluoro-phenyl]-2-oxo-oxazolidin-5-ylmethyl}-propionamide] | 2 (≈ 5.26 µM) | 8 (≈ 21 µM) | 8 (≈ 21 µM) | 8 (≈ 21 µM) | – | – | –
15 | CC(=O)NC[C@H]1CN(c2ccc(C3CC[C@@H](O)[C@@H](O)C3)cc2)C(=O)O1 (single isomer, unassigned) [Example 12, N-{3-[4-(3,4-Dihydroxy-cyclohexyl)-phenyl]-2-oxo-oxazolidin-5-ylmethyl}-acetamide] | 4 (≈ 11.5 µM) | 16 (≈ 45.9 µM) | 16 (≈ 45.9 µM) | 16 (≈ 45.9 µM) | – | – | –
16 | CC(=O)NC[C@H]1CN(c2ccc(C3CCC(=NO)CC3)c(F)c2)C(=O)O1 (stereo partly shown) [Example 21, N-{3-[3-Fluoro-4-(4-hydroxyimino-cyclohexyl)-phenyl]-2-oxo-oxazolidin-5-ylmethyl}-acetamide] | 0.5 (≈ 1.38 µM) | 8 (≈ 22 µM) | 16 (≈ 44 µM) | 1 (≈ 2.75 µM) | – | – | –
17 | O=C(NC[C@H]1CN(c2ccc(C3CCC(O)CC3)c(F)c2)C(=O)O1)C(F)F (stereo in doubt) [Example 18, 2,2-Difluoro-N-{3-[3-fluoro-4-(4-hydroxy-cyclohexyl)-phenyl]-2-oxo-oxazolidin-5-ylmethyl}-acetamide] | 0.5 (≈ 1.29 µM) | 4 (≈ 10.4 µM) | 8 (≈ 20.7 µM) | 2 (≈ 5.18 µM) | – | – | –
18 | O=C1O[C@@H](CNC(=S)C(F)F)CN1c1ccc(C2CCC(O)[C@@H](O)C2)c(F)c1 (stereo in doubt) [Example 11, N-{3-[4-(3,4-Dihydroxy-cyclohexyl)-3-fluoro-phenyl]-2-oxo-oxazolidin-5-ylmethyl}-2,2-difluoro-thioacetamide] | 0.5 (≈ 1.19 µM) | 4 (≈ 9.56 µM) | 8 (≈ 19.1 µM) | 1 (≈ 2.39 µM) | – | – | –
19 | CC(=O)NC[C@H]1CN(c2ccc(C3CCC(O)CC3)c(F)c2)C(=O)O1 (stereo in doubt) [Example 16, N-{3-[3-Fluoro-4-(4-hydroxy-cyclohexyl)-phenyl]-2-oxo-oxazolidin-5-ylmethyl}-acetamide] | 1 (≈ 2.85 µM) | 4 (≈ 11.4 µM) | 8 (≈ 22.8 µM) | 2 (≈ 5.71 µM) | – | – | –
20 | O=C1O[C@@H](CNC(=S)C(F)F)CN1c1ccc(C2CCC(O)C(F)C2)c(F)c1 (single isomer, unassigned) [Example 28, 2,2-Difluoro-N-{3-[3-fluoro-4-(3-fluoro-4-hydroxy-cyclohexyl)-phenyl]-2-oxo-oxazolidin-5-ylmethyl}-thioacetamide] | 0.5 (≈ 1.19 µM) | 2 (≈ 4.76 µM) | 32 (≈ 76.1 µM) | 1 (≈ 2.38 µM) | – | – | –
21 | O=C(NC[C@H]1CN(c2ccc(C3CCC(O)[C@@H](O)C3)cc2)C(=O)O1)C(Cl)Cl (stereo in doubt) [Example 13, 2,2-Dichloro-N-{3-[4-(3,4-dihydroxy-cyclohexyl)-phenyl]-2-oxo-oxazolidin-5-ylmethyl}-acetamide] | 1 (≈ 2.4 µM) | 8 (≈ 19.2 µM) | 8 (≈ 19.2 µM) | 8 (≈ 19.2 µM) | – | – | –
22 | CC(=O)NC[C@H]1CN(c2ccc(N3CC[C@@H](O)[C@@H](O)C3)c(F)c2)C(=O)O1 (stereo in doubt) [Example 1, N-{3-[4-(3,4-Dihydroxy-piperidin-1-yl)-3-fluoro-phenyl]-2-oxo-oxazolidin-5-ylmethyl}-acetamide] | – | – | 32 (≈ 87.1 µM) | – | 2 (≈ 5.44 µM) | 8 (≈ 21.8 µM) | 8 (≈ 21.8 µM)
23 | CC(=O)NC[C@H]1CN(c2ccc(C3CCC(O)C(F)C3)c(F)c2)C(=O)O1 (single isomer, unassigned) [Example 26, N-{3-[3-Fluoro-4-(3-fluoro-4-hydroxy-cyclohexyl)-phenyl]-2-oxo-oxazolidin-5-ylmethyl}-acetamide] | 0.5 (≈ 1.36 µM) | 8 (≈ 21.7 µM) | 16 (≈ 43.4 µM) | 2 (≈ 5.43 µM) | – | – | –
24 | CON=C1CCN(c2ccc(N3CC(CNC(C)=O)OC3=O)cc2F)CC1O (stereo not shown) [Example 4, N-{3-[3-Fluoro-4-(3-hydroxy-4-methoxyimino-piperidin-1-yl)-phenyl]-2-oxo-oxazolidin-5-ylmethyl}-acetamide] | 2 (≈ 5.07 µM) | 32 (≈ 81.1 µM) | 64 (≈ 162 µM) | 8 (≈ 20.3 µM) | – | – | –
25 | O=C1O[C@@H](CNC(=S)C(F)F)CN1c1ccc(C2CCC(O)CC2)c(F)c1 (stereo partly shown) [Example 19, 2,2-Difluoro-N-{3-[3-fluoro-4-(4-hydroxy-cyclohexyl)-phenyl]-2-oxo-oxazolidin-5-ylmethyl}-thioacetamide] | 0.5 (≈ 1.24 µM) | 2 (≈ 4.97 µM) | 8 (≈ 19.9 µM) | 2 (≈ 4.97 µM) | – | – | –
